Key:
[1] = test system: BT474 cells implanted in the mammary fat pad; experiment: Tumor growth in orthotopic BT474 xenograft in immunodeficient mice; assay type: in vivo; details: for Tumor size increase between day 19 and day 40: 5 days a week, vehicle 172%
From the text: Experiments were done as already described on the TrGET platform of centre de Recherche de Cancérologie de Marseille (Institut Paoli Calmettes, Marseille, France) in accordance with the guidelines of the Institut National de la Santé et de la Recherche Médicale. The study was approved by the Animal Experimentation Ethics Committee of Marseille (APAFIS#2079‐2015092811101360 v3). Briefly, 7‐to‐8‐week‐old female NOD.Cg‐Prkdc scid/J (NSG) mice were purchased from Charles River France or bred in‐house and maintained on a 12‐h light and 12‐h dark cycle, under specific pathogen‐free conditions with sterilized food and water provided ad libitum. The initial body weight of the animals at the time of arrival was between 19 and 24 g. Mice were allowed to acclimatize to local conditions for 1 week before being injected with tumor cells. 5 × 10^6 BT474 cells resuspended in 100 μL (50% matrigel and 50% PBS) were implanted orthotopically in the mammary fat pad of NSG mice anesthetized with ketamine and xylazine and administered with the nonsteroidal anti‐inflammatory drug metacam (SC, 1 mg·kg^−1). Estradiol pellets were implanted subcutaneously. Metacam was administered 24 and 48 h postimplantation. Nineteen days after implantation, mice were randomized into […] to be administered intraperitoneally during 3 weeks with vehicle (10% DMSO in PBS, twice a day, 5 days a week, n = 8), 3 mg·kg^−1 ebselen oxide (twice a day, 5 days a week, n = 8), or […] ebselen oxide (twice a day, 5 days a week, n = 8). Mice weight and tumor volume were assessed 2–3 times a week using a caliper. At the end of the experiment, the collected tumors were photographed, weighed, and cut into halves to be embedded in OCT for immunohistofluorescence analysis or frozen in liquid nitrogen for western blot analysis.
The collected tumors embedded in OCT were cut into 5 μm thick sections and immobilized on superfrost™ plus microscope slides. Sections were fixed in 4% paraformaldehyde for 10 min at room temperature, washed three times in PBS, permeabilized for 10 min in PBS containing 0.1% Triton X100, washed with PBS, blocked for 30 min in PBS containing 3% BSA and incubated 1 h at room temperature with primary antibodies [Monoclonal anti‐HER2 (clone Cle2‐4001 and 3B5, IF‐1 : 100) or polyclonal anti‐KI67 (ref PA5‐16785, IF‐1 : 200)]. Sections were again washed three times in PBS and incubated 1 h at room temperature with fluorescence‐conjugated secondary antibodies from Jackson Immunoresearch Laboratories. After mounting, samples were scanned using a Lamina multilabel slide scanner (PerkinElmer). The proliferative index (mean percentage of Ki67‐positive nuclei) was quantified on 10 regions (area 0.2 mm^2) per slide (vehicle, n = 7; ebselen oxide n = 5) using IMAGEJ software.
We then explored the potential of ebselen oxide to reduce the growth of HER2‐overexpressing tumors in vivo. Nineteen days after orthotopic implantation of BT474 cells in the mammary fat pad of immunodeficient […] mice, mice received 3 or 5 mg·kg^−1 ebselen oxide, intraperitoneally (once or twice a day, as indicated, 5 days a week) or vehicle as a control. […] Conversely, in animals treated with 5 mg·kg^−1 ebselen oxide, it increased only by 44% in mice treated with 5 mg·kg^−1 ebselen oxide, corresponding to a significant growth inhibition index of 75% at day 40 (Fig. 5C–E). […] Of note, there was an excellent correlation between tumor volume and tumor weight (R ^2 = 0.9611, Fig. 5H). […] We next analyzed biochemically the intratumoral level of activated HER2 and downstream signaling in vehicle‐ and 5 mg·kg^−1 ebselen oxide‐treated mice.

[2] = test system: HBMECs transfected with pRK5 empty vector; experiment: Proliferation of HBMECs transfected with pRK5 empty vector (Incucyte); details: 5 μM, Incucyte 5 days
Method: 25.10^3 cells/96‐well transfected HBMECs or 9.10^3 cancer cells were seeded and monitored with an Incucyte S3 imaging system (Sartorius, Goettingen, Germany) using 10× objective every 2 h during 5 days. Confluency analyses were performed using the dedicated Incucyte analysis system.
Proliferation was assessed by Incucyte during 5 days.
Representative quantification of the proliferation (B) is shown where data are mean ± sem (n=8-12).
vehicle, 5-10 µM Ebselen oxide or 5 µM AG1478.

BT474 = experiment: Incucyte proliferation, single agents and combinations, BT474; assay type: cell-based; details: Homo sapiens, BT-474, 96 h; read-out: Reduction/inhibition of cell proliferation
Method: (A–C) Proliferation curves of HER2‐positive (SKBR3, A; BT474, B; NCI‐N87, C) cancer cell lines treated or not with ebselen oxide (10 μM), lapatinib (10–1000 nM), or combination of these agents, as indicated. Proliferation was assessed overtime by Incucyte during 4 days. Data are mean ± SD (n = 8–12) of a representative experiment out of 4 (A), 3 (B), or 2 (C) independent experiments. […] Proliferation was assessed by Incucyte during 4 days. […] Scale bars are […].

SKOV3 = experiment: Proliferation of SKOV3 cells; assay type: cell-based, human; details: ebselen oxide 7–10 μM, AG1478 5 μM

O=C1c2ccccc2[Se](=O)N1c1ccccc1 (stereo not drawn) [Ebselen oxide, ebselen oxide]
Tumor size increase between day 19 and day 40 ([1]; 3 mg·kg−1 i.p.): 112%
Reduction in tumor size and weight compared to vehicle ([1]; 3 mg·kg−1 i.p., day 40): only a little reduction
Drop of tumor proliferation index (Ki67) vs vehicle ([1]; 5 mg·kg−1, immunofluorescence on tumor sections): 32%
Decrease of HER2 activation in tumor lysates vs vehicle ([1]; 5 mg·kg−1, western blot): 30%
Inhibition of Akt activation in tumor lysates ([1]; 5 mg·kg−1, western blot): 50%
Inhibition of ERK activation in tumor lysates ([1]; 5 mg·kg−1, western blot): 45%
Tumor size increase between day 19 and day 40 ([1]; 5 mg·kg−1 i.p.): 44%
Growth inhibition index ([1]; 5 mg·kg−1 i.p., day 40): 75%
Drop in tumor weight compared to vehicle-treated group ([1]; 5 mg·kg−1 i.p., tumors collected at day 40): 40%
Mice body weight after day 30 ([1]; 3 and 5 mg·kg−1, recovered after reduction from two to one injection per day): decrease of mice body weight
Tolerability (mice body weight) ([1]; 3 and 5 mg·kg−1 i.p. twice a day): well‐tolerated until day 30
Decrease in the mammary tumor volume (discussion) ([1]; mouse model, ebselen oxide administration): 40%
Effect on proliferation of cells transfected with pRK5 empty vector [2]: did not affect
inhibition at 10 µM (BT474): 30%
Effect on proliferation (SKOV3): reduced proliferation

Source: publication PMC10552892, “Ebselen oxide and derivatives are new allosteric HER2 inhibitors for HER2‐positive cancers” (Molecular Oncology, 2023)
